Consider 9 molecules from ChEMBL document CHEMBL1150330, “Muscarinic antagonists with multiple stereocenters: Synthesis, affinity profile and functional activity of isomeric 1-methyl-2-(2,2-alkylaryl-1,3-oxathiolan-5-yl)pyrrolidine sulfoxide derivatives” (Bioorg Med Chem, 2008).

In assay [1] the target is T1, Muscarinic acetylcholine receptor M1 (Homo sapiens, UniProt P11229).
T1 sequence (P11229 whole entry): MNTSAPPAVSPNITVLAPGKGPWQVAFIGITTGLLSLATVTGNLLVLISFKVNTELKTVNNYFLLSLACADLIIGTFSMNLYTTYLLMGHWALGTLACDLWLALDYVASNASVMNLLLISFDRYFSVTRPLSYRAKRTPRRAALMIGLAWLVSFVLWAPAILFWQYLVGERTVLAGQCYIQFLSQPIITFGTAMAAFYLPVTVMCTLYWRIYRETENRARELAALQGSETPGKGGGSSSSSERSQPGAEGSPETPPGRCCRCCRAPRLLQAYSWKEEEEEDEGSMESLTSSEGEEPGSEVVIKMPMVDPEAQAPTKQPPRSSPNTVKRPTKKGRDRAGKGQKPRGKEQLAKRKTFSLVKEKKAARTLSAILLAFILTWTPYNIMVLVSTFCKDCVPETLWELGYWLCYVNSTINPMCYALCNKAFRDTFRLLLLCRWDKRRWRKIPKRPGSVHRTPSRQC
Put plainly: Displacement of [3H]NMS from human muscarinic M1 receptor expressed in CHO cells. It counts as cell-based. On the technique in general: Displacement assays read how much labelled ligand stays bound in the presence of the test substance.

Assay [2] deals with T2, Muscarinic acetylcholine receptor M2 (Homo sapiens, UniProt P08172).
T2 sequence (P08172 whole entry): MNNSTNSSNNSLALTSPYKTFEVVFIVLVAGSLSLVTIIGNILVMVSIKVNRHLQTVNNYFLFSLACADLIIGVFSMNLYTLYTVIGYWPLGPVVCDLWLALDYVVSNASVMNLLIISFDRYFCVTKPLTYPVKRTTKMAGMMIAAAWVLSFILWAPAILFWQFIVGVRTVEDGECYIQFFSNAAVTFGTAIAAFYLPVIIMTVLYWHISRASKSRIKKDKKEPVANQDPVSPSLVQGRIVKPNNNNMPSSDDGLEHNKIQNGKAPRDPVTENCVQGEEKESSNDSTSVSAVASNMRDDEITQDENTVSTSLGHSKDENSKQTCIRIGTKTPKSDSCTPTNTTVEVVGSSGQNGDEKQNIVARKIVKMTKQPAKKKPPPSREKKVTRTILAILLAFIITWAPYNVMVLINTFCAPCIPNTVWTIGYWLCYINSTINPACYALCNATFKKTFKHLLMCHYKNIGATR
Put plainly: Displacement of [3H]NMS from human muscarinic M2 receptor expressed in CHO cells. It counts as cell-based.

The target of assay [3] is Muscarinic acetylcholine receptor M3 (Homo sapiens, UniProt P20309). Put plainly: Displacement of [3H]NMS from human muscarinic M3 receptor expressed in CHO cells. In kind it is cell-based.
Assay [4] concerns the target T3, Muscarinic acetylcholine receptor M4 (Homo sapiens, UniProt P08173).
T3 sequence (P08173 whole entry): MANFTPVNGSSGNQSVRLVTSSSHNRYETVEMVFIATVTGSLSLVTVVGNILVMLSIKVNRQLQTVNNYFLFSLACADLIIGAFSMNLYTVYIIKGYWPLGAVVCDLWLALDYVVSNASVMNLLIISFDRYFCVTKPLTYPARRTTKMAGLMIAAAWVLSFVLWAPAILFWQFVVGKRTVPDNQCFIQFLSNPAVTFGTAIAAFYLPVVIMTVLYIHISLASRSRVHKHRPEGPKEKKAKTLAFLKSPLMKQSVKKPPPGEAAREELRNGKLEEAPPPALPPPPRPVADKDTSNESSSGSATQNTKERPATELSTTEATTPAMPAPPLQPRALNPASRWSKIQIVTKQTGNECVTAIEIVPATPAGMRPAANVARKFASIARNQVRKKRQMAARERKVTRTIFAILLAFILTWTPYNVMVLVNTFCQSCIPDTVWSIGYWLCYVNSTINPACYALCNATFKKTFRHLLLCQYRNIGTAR
Put plainly: Displacement of [3H]NMS from human muscarinic M4 receptor expressed in CHO cells. It counts as cell-based.

The target of assay [5] is T4, Muscarinic acetylcholine receptor M5 (Homo sapiens, UniProt P08912).
T4 sequence (P08912 whole entry): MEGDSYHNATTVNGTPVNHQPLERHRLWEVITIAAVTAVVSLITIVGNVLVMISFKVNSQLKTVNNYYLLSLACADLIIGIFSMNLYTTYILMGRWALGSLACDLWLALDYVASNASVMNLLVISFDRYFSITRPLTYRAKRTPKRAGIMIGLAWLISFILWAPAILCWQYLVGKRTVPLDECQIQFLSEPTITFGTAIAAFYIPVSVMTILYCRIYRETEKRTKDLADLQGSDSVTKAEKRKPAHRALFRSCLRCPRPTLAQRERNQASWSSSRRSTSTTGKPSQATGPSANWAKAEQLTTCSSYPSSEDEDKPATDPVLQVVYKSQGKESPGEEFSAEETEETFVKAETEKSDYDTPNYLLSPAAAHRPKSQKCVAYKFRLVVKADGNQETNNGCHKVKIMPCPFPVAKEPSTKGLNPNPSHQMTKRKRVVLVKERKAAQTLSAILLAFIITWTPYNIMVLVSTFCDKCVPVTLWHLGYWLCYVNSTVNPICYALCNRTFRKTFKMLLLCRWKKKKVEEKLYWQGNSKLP
Put plainly: Displacement of [3H]NMS from human muscarinic M5 receptor expressed in CHO cells. In kind it is cell-based.

Assay [6] in a line: Antagonist activity against muscarinic M2 receptor in guinea pig atria assessed as effect on electrically-stimulated atria. In kind it is functional, Cavia porcellus.
A short description of assay [7]: Antagonist activity against muscarinic M3 receptor in guinea pig ileum assessed as effect on ileum tension. In kind it is functional, Cavia porcellus.
A short description of assay [8]: Antagonist activity against muscarinic M4 receptor in guinea pig lung strip assessed as effect on electrically-stimulated contraction. In kind it is functional, Cavia porcellus.

Some results are limits rather than exact numbers.

Muscarinic acetylcholine receptor M3, sequence (P20309 whole entry): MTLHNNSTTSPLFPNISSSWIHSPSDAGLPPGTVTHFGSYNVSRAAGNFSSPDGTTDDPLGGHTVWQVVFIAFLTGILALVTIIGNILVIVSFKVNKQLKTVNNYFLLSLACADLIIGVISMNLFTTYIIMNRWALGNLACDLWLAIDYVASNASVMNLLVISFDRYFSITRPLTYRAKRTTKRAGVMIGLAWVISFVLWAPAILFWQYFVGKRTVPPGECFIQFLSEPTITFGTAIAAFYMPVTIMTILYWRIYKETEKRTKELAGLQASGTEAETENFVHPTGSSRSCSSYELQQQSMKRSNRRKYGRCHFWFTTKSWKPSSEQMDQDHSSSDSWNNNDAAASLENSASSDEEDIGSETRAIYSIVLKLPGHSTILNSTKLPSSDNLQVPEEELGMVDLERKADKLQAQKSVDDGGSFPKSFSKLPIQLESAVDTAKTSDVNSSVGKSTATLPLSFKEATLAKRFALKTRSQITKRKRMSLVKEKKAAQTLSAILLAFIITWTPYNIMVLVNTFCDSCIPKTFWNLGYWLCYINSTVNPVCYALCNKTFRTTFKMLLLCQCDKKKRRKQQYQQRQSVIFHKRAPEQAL

Usually Ki stands for a measure of affinity in units of concentration, obtained from inhibition or displacement. High values mean a looser hold on the target, low ones a stronger hold on the target. As usually defined, the pKb is the negative decadic logarithm of the Kb, by convention in mol/L. For the molecule `CN1CCC[C@H]1[C@H]1C[S+]([O-])[C@@](c2ccccc2)(C2CCCCC2)O1` (stereo in doubt; (+)-7), the Ki is 10 nM in assay [1]; 64.6 nM in assay [2]; 18.2 nM in assay [3]; 33.1 nM in assay [4]; 25.1 nM in assay [5]. In addition, the pKb amounted to 7.56 in assay [6], 7.96 in assay [7] and 5.2 in assay [8].

For `CN1CCC[C@@H]1[C@@H]1C[S+]([O-])[C@](c2ccccc2)(C2CCCCC2)O1` (stereo in doubt; (-)-6), the Ki in assay [1] was 79.4 nM; in assay [2] it was 107 nM; in assay [3], 195 nM; in assay [4], 355 nM; in assay [5], 275 nM. Also, the figures for the pKb in assay [6], in assay [7] and in assay [8] were 7.34, 7.39 and 7.24, respectively.

Take `CN1CCC[C@H]1[C@H]1C[S+]([O-])[C@@](c2ccccc2)(C2CCCCC2)O1` (stereo in doubt; (+)-6): the Ki is 155 nM in assay [1]; 1020 nM in assay [2]; 389 nM in assay [3]; 447 nM in assay [4]; 525 nM in assay [5]. In addition, the values for the pKb in assay [6], in assay [7] and in assay [8] were 5.48, 6.43 and below 5, respectively.

In the case of `C[N+]1(C)CCC[C@@H]1[C@@H]1C[S+]([O-])[C@](c2ccccc2)(C2CCCCC2)O1.[I-]` (stereo in doubt; (-)-13), the Ki in assay [1] is 117 nM; in assay [2], 95.5 nM; in assay [3], 324 nM; in assay [4], 468 nM; in assay [5], 302 nM. The values for the pKb in assay [6], in assay [7] and in assay [8] were 7.51, 7.22 and 6.06, respectively.

Regarding `C[N+]1(C)CCC[C@H]1[C@H]1C[S+]([O-])[C@@](c2ccccc2)(C2CCCCC2)O1.[I-]` (stereo in doubt; (+)-13), the Ki is 3.02 nM in assay [1]; 17.8 nM in assay [2]; 4.17 nM in assay [3]; 15.8 nM in assay [4]; 3.02 nM in assay [5]. Further, the negative-log Kb (pKb) is given as 7.81 in assay [6], 8.67 in assay [7] and 6.37 in assay [8].

As for `C[N+]1(C)CCC[C@@H]1[C@@H]1C[S+]([O-])[C@](c2ccccc2)(C2CCCCC2)O1.[I-]` (stereo in doubt; (-)-12), the Ki in assay [1] was 56.2 nM; in assay [2], 85.1 nM; in assay [3], 288 nM; in assay [4] it was 316 nM; in assay [5] it was 195 nM. The pKb was determined as 7.91 in assay [6], 7.11 in assay [7] and 7.45 in assay [8].

Regarding `C[N+]1(C)CCC[C@@H]1[C@@H]1C[S+]([O-])C(c2ccccc2)(c2ccccc2)O1.[I-]` (stereo in doubt; (+)-11), the Ki is 324 nM in assay [1]; 195 nM in assay [2]; 417 nM in assay [3]; 1170 nM in assay [4]; 813 nM in assay [5]. Besides, the pKb in assay [6] came to 7; in assay [7], 7.62; in assay [8] it was 5.25.

For the molecule `C[N+]1(C)CCC[C@H]1[C@H]1C[S+]([O-])C(c2ccccc2)(c2ccccc2)O1.[I-]` (stereo in doubt; (-)-11), the Ki in assay [1] was 15.8 nM; in assay [2], 41.7 nM; in assay [3], 51.3 nM; in assay [4], 105 nM; in assay [5], 30.2 nM. Further, the pKb in assay [6] is given as 6.93; in assay [7] it was 7.89; in assay [8], below 5.

Consider `C[N+]1(C)CCC[C@@H]1[C@@H]1C[S+]([O-])C(c2ccccc2)(c2ccccc2)O1.[I-]` (stereo in doubt; (-)-10), for which the Ki in assay [1] was 53.7 nM; in assay [2], 69.2 nM; in assay [3], 263 nM; in assay [4] it was 282 nM; in assay [5] it was 182 nM. Also, the figures for the pKb in assay [6], in assay [7] and in assay [8] were 7.3, 7.5 and 6.53, respectively.
